Like-named read-outs stand apart in the source and are kept apart here.

Common to all, as to type: in vivo
One data set deals with Aedes aegypti. In words: whole plant or invertebrate. As to conditions: for mortality at 800 ppm: Aedes aegypti, 48 h, read-out: mortality in comparison with untreated controls; for mortality in comparison with untreated controls: 800 ppm, larvae, 2 days. In short, it runs like this: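 Visual larval mortality was assessed 2 days after treatment (28±1 °C, 80±5% RH). Formulations of compounds or mixtures (75% water/25% DMSO) were applied by micro-atomizer onto diet of 5-15 newly hatched larvae per water-filled well, two replicates per concentration.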

The subject of data set [1] is Plutella xylostella. Kind of data set: Action on Diamond Back Moth (Plutella xylostella), cabbage leaf dip, 3rd instar larvae. As to conditions: for mortality at 300 ppm: read-out: mortality in comparison with untreated controls. The procedure, abridged:
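Cabbage leaves dipped in compound solution (1:1 water:acetone, 0.01% v/v surfactant), air-dried, then infested with ten 3rd-instar larvae in petri dishes on moist filter paper. Mortality scored at 72 h after treatment; feeding damage rated on a 0–100% scale.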

A further data set relates to Spodoptera eridania. Kind of data set: Action on Southern Armyworm (Spodoptera eridania), 2nd Instar Larvae. The note with it: for mortality at 300 ppm: read-out: mortality in comparison with untreated controls. The procedure, abridged: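 2nd-instar Spodoptera eridania larvae (about 10–11 per pot) confined on sprayed, dried Lima bean plants (1st true leaf stage) in sealed bags. Spray solutions: acetone/water 1:1 plus 0.01% surfactant. Held 4 days near 25 °C, 20–40% RH; assessed for mortality and feeding reduction against untreated controls.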

A further data set has as its system Dichromothrips corbetti. Kind of data set: Action on Orchid Thrips (Dichromothrips corbetti). The note with it: for mortality at 300 ppm: Dichromothrips corbetti, read-out: mortality in comparison with untreated controls. As for the experimental part: Example B2: Action on Orchid Thrips (Dichromothrips corbetti)
Dichromothrips corbetti adults used for bioassay were obtained from a colony maintained continuously under laboratory conditions. For testing purposes, the test compound is diluted in a 1:1 mixture of acetone: water (vol: vol), plus Kinetic® HV at a rate of 0.01% v/v.
Thrips potency of each compound was evaluated by using a floral-immersion technique. All petals of individual, intact orchid flowers were dipped into treatment solution and allowed to dryin Petri dishes. Treated petals were placed into individual re-sealable plastic along with about 20 adult thrips. All test arenas were held under continuous light and a temperature of about 28 °C for duration of the assay. After 3 days, the numbers of live thrips were counted on each petal. The percent mortality was recorded 72 hours after treatment.

The next data set has as its system Anthonomus grandis. In words: Action on Boll Weevil (Anthonomus grandis). The note with it: for mortality at 800 ppm: Anthonomus grandis, 120 h, read-out: mortality in comparison with untreated controls. The procedure, abridged:
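Diet in 96-well plates, seeded with 5-10 A. grandis eggs, received a spray of formulated compound (25% DMSO in water) at a range of concentrations, duplicated. Mortality of eggs and larvae was judged by eye after 5 days at about 25±1 °C, 75±5% relative humidity.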

In the next data set the test system is Heliothis virescens. Kind of data set: Action on Tobacco Budworm (Heliothis virescens). As to conditions: for mortality at 800 ppm: Heliothis virescens, 120 h, read-out: mortality in comparison with untreated controls. The procedure, abridged:
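Eggs (15-25 per well) on diet were held 5 days at about 28±1 °C, 80±5% RH, then egg and larval mortality was scored by eye. Beforehand the diet had been sprayed with compound dilutions formulated in water/DMSO 75:25 v/v, in two replicates.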

For data set [2], the system named is Plutella xylostella. Kind of data set: Action on Diamond Back Moth (Plutella xylostella), microtiter plates, insect diet, eggs. As to conditions: 800 ppm; egg and larval mortality; 5 days. As for the experimental part:
Example B8: Action on Diamond Back Moth (Plutella xylostella)
For evaluating control of diamond back moth (Plutella xylostella) the test unit consisted of 96-well-microtiter plates containing an insect diet and 15-25 P. xylostella eggs. The compounds or mixtures were formulated using a solution containing 75% water and 25% DMSO. Different concentrations of formulated compounds or mixtures were sprayed onto the insect diet at 5 μl, using a custom-built micro atomizer, at two replications. For experimental mixtures in these tests identical volumes of both mixing partners at the desired concentrations respectively, were mixed together. After application, microtiter plates were incubated at 28±1 °C, 80±5% RH for 5 days. Egg and larval mortality was then visually assessed.

Setting [3] is: Plutella xylostella, foliar, 300 ppm, 3rd instar larvae, 72 hours after treatment.
[4] abbreviates: Spodoptera eridania, 96 h, 300 ppm, 2nd instar larvae, 4 days after treatment.
Where [5] appears, read: 300 ppm, adults, 72 hours after treatment.
Setting [6] is: 800 ppm, egg and larval mortality, 5 days.
The mark [7] stands for this setting: Plutella xylostella, foliar, 72 h.
Setting [8] is: 300 ppm, 3rd instar larvae, 72 hours after treatment.
Setting [9] is: 300 ppm, 2nd instar larvae, 4 days after treatment.

Usually mortality stands for the share of the test organisms that died. With `Cc1ccc(C(C)C)c(N2C(=O)CS/C2=N\C(=O)Nc2ccc(-n3cc(NC(=O)c4ccc(OC(F)(F)F)cc4)c(C)n3)cc2C)c1` [Example C-1, N-[1-[4-[[(Z)-[3-(2-isopropyl-5-methyl-phenyl)-4-oxo-thiazolidin-2-ylidene]carbamoyl]amino]-3-methyl-phenyl]-3-methyl-pyrazol-4-yl]-4-(trifluoromethoxy)benzamide], the results for the mortality at 800 ppm with Aedes aegypti, with Anthonomus grandis (setting [6]) and in the data set on Heliothis virescens (setting [6]) were no less than 50%, no less than 75% and no less than 75%, respectively. For the same molecule, the mortality at 300 ppm in the data set on Plutella xylostella [1] (setting [3]), with Spodoptera eridania (setting [4]) and in the data set with Dichromothrips corbetti (setting [5]) was no less than 75% each time.
`Cc1ccc(C(C)C)c(N2C(=O)CS/C2=N\C(=O)Nc2ccc(-n3cc(N(C)C(=O)c4ccc(OC(F)(F)F)cc4)c(C)n3)cc2)c1` [Example C-2, N-[1-[4-[[(Z)-[3-(2-isopropyl-5-methyl-phenyl)-4-oxo-thiazolidin-2-ylidene]carbamoyl]amino]phenyl]-3-methyl-pyrazol-4-yl]-N-methyl-4-(trifluoromethoxy)benzamide]: the figures for the mortality at 800 ppm in the data set with Aedes aegypti, in the data set on Anthonomus grandis (setting [6]) and in the data set on Heliothis virescens (setting [6]) were no less than 50%, no less than 75% and no less than 75%, respectively. Moreover, the mortality at 10 ppm is 100% with Plutella xylostella [1] (Plutella xylostella, foliar, 72 h, Table R-1 comparative data, dose 10 ppm, test species PLUTMA, procedure analogous to B6) and 82.5% in the data set on Spodoptera eridania (Spodoptera eridania, 96 h, Table R-1 comparative data, dose 10 ppm, test species PRODER, procedure analogous to B7). The mortality at 300 ppm with Plutella xylostella [1] (setting [3]), in the data set on Spodoptera eridania (setting [4]) and with Dichromothrips corbetti (setting [5]) was no less than 75% in each case.
Take `Cc1ccc(C(C)C)c(N2C(=O)CS/C2=N\C(=O)Nc2ccc(-n3nc(C)c(N(C)C(=O)c4ccc(OC(F)(F)F)cc4)c3Cl)cc2)c1` [Example C-3, N-[5-chloro-1-[4-[[(Z)-[3-(2-isopropyl-5-methyl-phenyl)-4-oxo-thiazolidin-2-ylidene]carbamoyl]amino]phenyl]-3-methyl-pyrazol-4-yl]-N-methyl-4-(trifluoromethoxy)benzamide]: the mortality at 800 ppm is no less than 50% in the data set with Aedes aegypti, no less than 75% in the data set on Anthonomus grandis and no less than 75% with Heliothis virescens. Moreover, the mortality at 300 ppm in the data set with Plutella xylostella [1] (setting [7]) is no less than 75%; in the data set on Spodoptera eridania (Spodoptera eridania, 96 h), no less than 75%; with Dichromothrips corbetti (72 h) it was no less than 75%.
Turning to `Cc1ccc(C(C)C)c(N2C(=O)CS/C2=N\C(=O)Nc2ccc(-n3nc(C)c(NC(=O)c4ccc(OC(F)(F)F)cc4)c3C)cc2Cl)c1` [Example C-4, N-[1-[3-chloro-4-[[(Z)-[3-(2-isopropyl-5-methyl-phenyl)-4-oxo-thiazolidin-2-ylidene]carbamoyl]amino]phenyl]-3,5-dimethyl-pyrazol-4-yl]-4-(trifluoromethoxy)benzamide], the mortality at 800 ppm is no less than 50% with Aedes aegypti, no less than 75% in the data set with Anthonomus grandis and no less than 75% in the data set with Heliothis virescens. For the same molecule, the mortality at 300 ppm with Plutella xylostella [1] (setting [7]) is no less than 75%; in the data set with Spodoptera eridania (Spodoptera eridania, 96 h), no less than 75%; in the data set with Dichromothrips corbetti (72 h) it was no less than 75%.
With `Cc1nn(-c2ccc(NC(=O)/N=C3\SCC(=O)N3c3cc(C4CC4)ccc3C(C)C)c(F)c2)cc1NC(=O)c1ccc(OC(F)(F)F)cc1` [Example C-7], the “mortality in comparison with untreated controls” value (“mortality in comparison” for short) is on record as “at least 50%” in the data set with Aedes aegypti; “at least 75%” in the data set on Plutella xylostella [1] (setting [8]); “at least 75%” with Spodoptera eridania (setting [9]); “at least 75%” in the data set with Dichromothrips corbetti (setting [5]); “at least 75%” with Anthonomus grandis (setting [6]); “at least 75%” with Heliothis virescens (setting [6]).
As for `Cc1ccc(C(C)C)c(N2C(=O)CSC2=NC(=O)Nc2ccc(-n3cc(NC(=O)c4ccc(OC(F)(F)F)cc4)c(C)n3)cc2)c1` [Example C-9], the “mortality in comparison” value in the data set on Aedes aegypti was “at least 50%”; with Plutella xylostella [1] (setting [8]), “at least 75%”; in the data set with Spodoptera eridania (setting [9]), “at least 75%”; in the data set with Dichromothrips corbetti (setting [5]), “at least 75%”; in the data set on Anthonomus grandis (setting [6]) it was “at least 75%”; with Heliothis virescens (setting [6]), “at least 75%”.
For the molecule `Cc1ccc(C(C)C)c(N2C(=O)CS/C2=N\C(=O)Nc2ccc(-n3nc(C)c(NC(=O)c4ccc(OC(F)(F)F)cc4)c3C)nc2)c1` [Example C-22], the “mortality in comparison” value in the data set on Plutella xylostella [1] (setting [8]), in the data set with Spodoptera eridania (setting [9]) and in the data set on Dichromothrips corbetti (setting [5]) was “at least 75%” throughout.
Turning to `COc1ccc(C(C)C)c(N2C(=O)CSC2=NC(=O)Nc2ccc(-n3nc(C)c(NC(=O)c4ccc(OC(F)(F)F)cc4)c3C)cc2Cl)c1` [Example C-44], the “mortality in comparison” value is recorded as “at least 50%” in the data set with Aedes aegypti; “at least 75%” in the data set with Plutella xylostella [1] (setting [8]); “at least 75%” in the data set with Dichromothrips corbetti (setting [5]); “at least 75%” in the data set on Anthonomus grandis (setting [6]); “at least 75%” in the data set on Heliothis virescens (setting [6]).
Take `Cc1ccc(C(C)C)c(N2C(=O)CSC2=NC(=O)Nc2ccc(-n3nc(C)c(NC(=O)c4cc(F)c(F)c(F)c4)c3C)cc2)c1` [Example C-117]: the “mortality in comparison” value in the data set on Aedes aegypti was “at least 50%”; in the data set on Spodoptera eridania (setting [9]), “at least 75%”; in the data set on Plutella xylostella [2] it was “at least 75%”; in the data set on Anthonomus grandis (setting [6]) it was “at least 75%”; in the data set on Heliothis virescens (setting [6]), “at least 75%”.
`Cc1ccc(C(C)C)c(N2C(=O)CSC2=NC(=O)Nc2ccc(-n3nc(C)c(NC(=O)c4ccc(Cl)c(C#N)c4)c3C)cc2)c1` [Example C-118]: the “mortality in comparison” value in the data set with Plutella xylostella [1] (setting [8]), in the data set on Plutella xylostella [2] and with Anthonomus grandis (setting [6]) was “at least 75%” each time.
Take `Cc1ccc(C(C)C)c(N2C(=O)CSC2=NC(=O)Nc2ccc(-n3nc(C)c(NC(=O)c4cc(F)c(F)cc4F)c3C)cc2)c1` [Example C-120]: the “mortality in comparison” value is reported as “at least 50%” in the data set on Aedes aegypti; “at least 75%” with Spodoptera eridania (setting [9]); “at least 75%” with Plutella xylostella [2]; “at least 75%” in the data set with Anthonomus grandis (setting [6]); “at least 75%” with Heliothis virescens (setting [6]).
Consider `Cc1nn(-c2ccc(NC(=O)NC(=S)Nc3ccccc3C(C)C)cc2)cc1NC(=O)c1ccc(OC(F)(F)F)cc1` [Example C-126], for which the “mortality in comparison” value was “at least 50%” in the data set on Aedes aegypti; “at least 75%” in the data set on Spodoptera eridania (setting [9]); “at least 75%” with Plutella xylostella [2]; “at least 75%” in the data set with Anthonomus grandis (setting [6]); “at least 75%” in the data set with Heliothis virescens (setting [6]).
Take `Cc1ccc(C(C)C)c(N2CCSC2=NC(=O)Nc2ccc(-n3nc(C)c(NC(=O)c4ccc(OC(F)(F)F)cc4)c3C)cc2Cl)c1` [Example C-128]: the “mortality in comparison” value with Aedes aegypti was “at least 50%”; in the data set with Spodoptera eridania (setting [9]) it was “at least 75%”; with Plutella xylostella [2] it was “at least 75%”; in the data set with Anthonomus grandis (setting [6]), “at least 75%”; with Heliothis virescens (setting [6]), “at least 75%”.

Source of the values: patent US20260354380A1, “PYRAZOLO PESTICIDAL COMPOUNDS” (BASF SE, priority 2022, published 2026).
